How the values were obtained:
[1] = system: HeLa (cervix epithelioid carcinoma cells); assay: MTT antiproliferative assay, HeLa; format: cell-based, human; conditions: for IC50: Homo sapiens, HeLa
Method: (§1) The cell proliferation inhibitory activity of frentizole and the synthesized analogs 2–10 against representative human cancer cell lines was assayed using the MTT method (Table 1). […] For those compounds inhibiting cell proliferation by more than 40% with respect to the untreated controls at the threshold concentration, the IC50 values were calculated by measuring the proliferation inhibition in a range of concentrations from 100 to 0.001 μM and adjusting the resulting curves to sigmoidal dose–response curves. The selected cell lines were HeLa (cervix epithelioid carcinoma cells), one of the most frequent kinds of cancer, with good sensitivity against antimitotic agents, and the glioblastoma cell lines U87MG and A172. To study the selectivity of the compounds toward cancer cells versus nontumor cells, the compounds were also evaluated against the nontumorigenic cell line HEK-293 (human embryonic kidney cells) and the murine macrophage cell line J774. Sulfonamide ABT-751, as a representative of the colchicine-site ligands, and the first-line drug for the treatment of glioblastoma multiforme temozolomide (TMZ) were used as reference compounds.
(§2) The cell lines were from ATTC (Manassas, VA, USA). HeLa (human cervix epithelioid carcinoma), U87 MG (human glioblastoma), A172 (human glioblastoma), and HEK-293 (human embryonic kidney) were grown in Dulbecco’s modified Eagle’s medium (DMEM, Gibco, Waltham, MA, USA), supplemented with 10% (v/v) heat-inactivated fetal bovine serum (HIFBS, Sigma-Aldrich, St. Louis, MO, USA), 2 mM L-glutamine, 100 μg/mL streptomycin, and 100 units/mL penicillin (Gibco, Waltham, MA, USA) at 37 °C in humidified 95% air and 5% CO2. The cells were periodically tested for Mycoplasma infection using MycoAlert kit (Lonza, Norwest, Australia), and only mycoplasma-free cells were employed in the experiments.
(§3) The effect of the compounds on the proliferation of human tumor cell lines was determined as previously described using the MTT reagent 3-[4,5-dimethylthiazol-2-yl]-2,5-diphenyltetrazolium bromide, MTT Thiazolyl Blue Tetrazolium Bromide, Sigma-Aldrich, St. Louis, MO, USA) dissolved in PBS at 5 mg/mL, according to the manufacturer’s instructions. The cells were incubated in 96-well plates (100 μL/well), in complete DMEM or RPMI 1640 medium (see above), at 37 °C and 5% CO2 atmosphere for 24 h to allow for cell attachment to the plate at the following concentrations: 30,000 cells/mL (U87MG, A172, J774, and HEK-293 cells) or 15,000 cells/mL (HeLa cells). Then, every compound was added (10 μL/well) to a final concentration of 10 μM. Untreated cells were used as negative controls. The antiproliferative activity of the compounds was measured 72 h after drug exposure using the MTT assay. The IC50 value (the drug concentration required to inhibit 50% of the cell growth in respect the untreated control) was determined for those compounds showing antiproliferative effects in the initial screening at 10 μM. For this purpose, the compounds were used at different concentrations ranging from 10^−10 to […]. Measurements were performed in triplicate and each experiment was repeated three times. The IC50 values were determined using Origin software (OriginLab, Washington, DC, USA).

[2] = system: murine macrophage cell line J774; assay: MTT antiproliferative assay, J774; format: cell-based; conditions: Mus musculus, 72 h after drug treatment, threshold 10 μM, read-out: IC50 J-774
Method: as §1, §3

[3] = system: A172 (human glioblastoma); assay: MTT antiproliferative assay, A-172; format: cell-based; conditions: 72 h after drug treatment, threshold 10 μM
Method: as §1, §2, §3

[4] = system: microtubule network of HeLa cells; assay: Immunofluorescence confocal microscopy of cellular microtubules; format: cell-based, human; conditions: 2 μM, 24 h
Method: Therefore, we studied the effect of the compounds after 24 h of treatment on the microtubule network of HeLa cells by immunofluorescence confocal microscopy (Figure 5) through α-tubulin and nuclei labeling. […] These morphological effects are typical of tubulin inhibitors. Again, the effects are more pronounced for 5b than for 3ea, frentizole, and 5f.
HeLa cells (8 × 10^4 cells/mL) were seeded on 0.01% poly-L-lysine precoated square glass coverslips (22 mm^2), deposited on 6-well plates (1 coverslip/well), and incubated in complete DMEM medium at 37 °C and 5% CO2 atmosphere. After 24 h the culture medium was replaced by fresh complete DMEM, and the cells were incubated in the presence of 2 μM or absence of the selected compounds (3ea, 5b, 5f, and frentizole 6e) for 24 h. Untreated cells were used as negative controls. Then the medium was removed, and the coverslips were washed three times with PBS, fixed in 4% formaldehyde in PBS for 10 min, permeabilized with 0.5% Triton X-100 (Sigma-Aldrich, St. Louis, MO, USA) in PBS for 90 s at 4 °C, blocked with 10% BSA in PBS for 30 min and washed four times with PBS. Then, the coverslips were incubated for 1 h with anti-α-tubulin mouse monoclonal antibody (Sigma-Aldrich, St. Louis, MO, USA, 1:200 in PBS containing 3% BSA). After four washes with PBS, the coverslips were incubated with fluorescent secondary antibody Alexa Fluor 488 goat anti-mouse IgG (Molecular Probes, Invitrogen, Eugenen, OR, USA, 1:400 in PBS containing 1% BSA) for 1.5 h in darkness. After four washes with PBS, a droplet of ProLong™ Gold Antifade Mountant containing DAPI (ThermoFisher, Waltham, MA, USA) was added for cell nuclei staining. The samples were analyzed via confocal microscopy using a LEICA SP5 microscope DMI-6000V model coupled to a LEICA LAS AF 4.0 software computer.

[5] = system: nontumorigenic cell line HEK-293 (human embryonic kidney cells); assay: MTT antiproliferative assay, HEK-293; format: cell-based; conditions: HEK293, 72 h after drug treatment, threshold 10 μM
Method: as §1, §2, §3

[6] = system: U87 MG (human glioblastoma); assay: MTT antiproliferative assay, U-87 MG; format: cell-based; conditions: 72 h after drug treatment, threshold 10 μM
Method: as §1, §2, §3

HeLa cells = assay: Cell cycle analysis (PI staining, flow cytometry); format: cell-based, human; conditions: 2 μM, 24-72 h
Method: To study the effects of the compounds on the cell cycle, cells were incubated for different times with the compounds and, thereafter, their DNA was stained using propidium iodide (PI) to allow for quantification by flow cytometry. […] The brominated ethyl BZTs (5b and 5f) were faster to show the subG0/G1 decrease, at 24 h, followed by an apparent stabilization of the G0/G1 population at 48 h, which abruptly fell at the 72 h time point.
HeLa cells (8 × 10^4 cells/mL) were seeded in 6-well plates (2 mL/well) and incubated in complete DMEM medium at 37 °C and 5% CO2 atmosphere for 24 h. Then, the medium was replaced with fresh complete DMEM in the presence or absence of the selected compounds (3ea, 5b, 5f, and frentizole 6e) at 2 μM. Untreated cells were used as negative controls. Cells were harvested 24, 48, or 72 h following treatment and fixed in ice-cold ethanol/PBS (7:3) overnight. The cells were then washed twice with PBS, suspended in PBS and incubated overnight in darkness with 0.2 mg/mL RNase A (Sigma-Aldrich, St. Louis, MO, USA), 50 μg/mL propidium iodide (Sigma-Aldrich, St. Louis, MO, USA), and Triton 10× at room temperature. A BD Accuri™ C6 Plus Flow Cytometer (BD Bioscience, Madrid, Spain) was used to analyze samples, and BD Accuri™ C6 Software (version 1.0.264.21) was used for data analysis.

Solubility (remark) = format: physicochemical
[7] = system: Ras-related protein Rab-9A; design: method as in SuperPred [40]; conditions: Table S2, CHEMBL1293294; ref SuperPred [40]; cited from earlier work
[8] = design: method as in PMID 24858403; conditions: cited from earlier work
[9] = system: Survival motor neuron protein; design: method as in SuperPred [40]; conditions: Table S2, CHEMBL1293232; ref SuperPred [40]; cited from earlier work
[10] = system: U87 MG (human glioblastoma); design: method as in PMID 37376146; conditions: cited from earlier work
[11] = 72 h after drug treatment, threshold 10 μM

IC50 [1, 11] | IC50 [3] | IC50 [6] | solubility (in words) (Solubility (remark)) | IC50 HeLa [1, 11] | Structure (SMILES) | activity against HeLa cells (in words) [1] | IC50 [2] | effect on the microtubule network (in words) [4] | IC50 [5] | effect on the cell cycle populations (in words) (HeLa cells) | Min Activity (Assay type Potency) [7] | blood–brain barrier crossing [8] | Min Activity (Assay type Potency) [9] | effect on the cell cycle populations (in words) (HeLa cells; listed as Frentizole (6e)) | effect on the cell cycle populations (in words) (HeLa cells; listed as frentizole) | in vitro IC50 against U87MG [10]
0.74 µM | > 10 µM | > 10 µM |  |  | COc1ccc2nc(N(C)C(=O)c3ccccc3)sc2c1 [Compound 3ea, N-(6-methoxybenzo[d]thiazol-2-yl)-N-methylbenzamide] | significant activity | > 10 µM | severe microtubule network disruption | > 10 µM | weakest effect on the cell populations |  |  |  |  |  | 
0.49 µM | > 10 µM | > 10 µM |  |  | CCNC(=O)Nc1nc2c(Br)cc(C)cc2s1 [Compound 5b, 1-(4-Bromo-6-methylbenzo[d]thiazol-2-yl)-3-ethylurea] | significant activity | > 10 µM | severe microtubule network disruption | > 10 µM | arrest at G2/M in the 24 to 48 h period |  |  |  |  |  | 
1.24 µM | > 10 µM | > 10 µM | very limited solubility |  | CCNC(=O)Nc1nc2c(Br)c(C)c(C)cc2s1 [Compound 5d, 1-(4-Bromo-5,6-dimethylbenzo[d]thiazol-2-yl)-3-ethylurea] | significant activity | > 10 µM |  | > 10 µM |  |  |  |  |  |  | 
0.7 µM | > 10 µM | > 10 µM |  |  | CCNC(=O)Nc1nc2c(Br)cc(OC)cc2s1 [Compound 5f, 1-(4-Bromo-6-methoxybenzo[d]thiazol-2-yl)-3-ethylurea] | significant activity | > 10 µM | severe microtubule network disruption | > 10 µM | increase in the subG0/G1 population progressively occurs at the 48 h to 72 h timepoints |  |  |  |  |  | 
1 µM | > 10 µM | 7.33 µM |  | low micromolar range | COc1ccc2nc(NC(=O)Nc3ccccc3)sc2c1 [Compound 6e, 1-(6-Methoxybenzo[d]thiazol-2-yl)-3-phenylurea, reference compound] | significant activity | > 10 µM | severe microtubule network disruption | 6.86 µM |  | 707.9 nm | able to cross the blood–brain barrier | 891.3 nm | progressive accumulation of cells in the G2/M population | no increase in the subG0/G1 population was observed | 
 |  |  |  |  | Cn1nnc2c(C(N)=O)ncn2c1=O [temozolomide] |  |  |  |  |  |  |  |  |  |  | millimolar range
